For this assay, the target named is T1, Ndk (nucleoside diphosphate kinase) (Acinetobacter baumannii, UniProt B0VKS3).
T1 construct: E. coli BL21(DE3), Ni-NTA
T1 sequence (B0VKS3 1-143): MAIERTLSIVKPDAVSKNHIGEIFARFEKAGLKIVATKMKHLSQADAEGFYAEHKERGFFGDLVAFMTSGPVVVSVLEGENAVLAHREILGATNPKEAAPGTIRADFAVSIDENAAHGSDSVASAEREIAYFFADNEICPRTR
Kind of assay: intrinsic tryptophan/tyrosine fluorescence quenching titration (excitation […] nm). Type of assay: binding. Particulars: pH 7 (neutral), 25 °C, 17 µM protein, ATP 20-100 µM.

With `Nc1ncnc2c1ncn2[C@@H]1O[C@H](COP(=O)(O)OP(=O)(O)OP(=O)(O)O)[C@@H](O)[C@H]1O` [ATP], the “intrinsic tryptophan/tyrosine fluorescence quenching titration (excitation 280 n)” value was “Binding of the substrate ATP with the enzyme was confirmed by the quenching of fluorescence”.

(Values after PMC3639647, “Cloning, Expression, and Purification of Nucleoside Diphosphate Kinase from Acinetobacter baumannii” (Enzyme Research, 2013).)
